From publication PMC10535856, “CD4^+ T Cell Responses to Toxoplasma gondii Are a Double-Edged Sword” (Vaccines, 2023)
Where no end group is shown, it is not given here.

Experiments:
[1] = test system: uninfected HLA-A*11:01 transgenic mice; assay: Mortality and tolerability after boost immunization; assay type: in vivo, mouse
I-A^b [2] = target: T1, I-A^b (Mus musculus, UniProt P14434+P14483); assay: Competitive peptide binding to I-A^b; settings: competitive binding study, procedure of ref 51; 'bound weakly'
T1 sequence (P14434 24-256): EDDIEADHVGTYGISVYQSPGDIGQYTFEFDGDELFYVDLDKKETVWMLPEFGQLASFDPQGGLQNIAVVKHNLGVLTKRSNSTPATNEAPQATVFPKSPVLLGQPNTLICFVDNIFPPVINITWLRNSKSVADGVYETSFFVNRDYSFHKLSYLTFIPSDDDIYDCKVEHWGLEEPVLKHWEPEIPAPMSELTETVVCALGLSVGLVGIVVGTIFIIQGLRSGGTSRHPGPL
T1 sequence (P14483 28-265): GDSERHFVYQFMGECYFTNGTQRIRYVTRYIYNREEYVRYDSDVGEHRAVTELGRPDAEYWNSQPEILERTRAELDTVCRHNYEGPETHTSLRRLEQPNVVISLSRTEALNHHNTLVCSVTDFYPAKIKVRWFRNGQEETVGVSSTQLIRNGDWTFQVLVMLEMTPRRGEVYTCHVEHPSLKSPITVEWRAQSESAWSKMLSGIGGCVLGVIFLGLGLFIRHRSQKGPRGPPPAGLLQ

CD4^+ T cells = settings: in vitro human PBMCs and in vivo mice; cited from earlier work
Excerpt: Vaccines that are composed of polypeptides that elicit epitope-restricted CD4^+ and CD8^+ T cells have the potential to induce an immune response against human toxoplasmic infection in humans. We are building a rational “immunosense” approach that utilizes epitope selection for peptides that can be presented by human major histocompatibility complexes (MHCs) to elicit protective CD8^+ and CD4^+ T cells. We have made considerable efforts to iden ...

I-A^b [3] = target: T1, I-A^b; parameters: method as in PMID 7895164, PMID 32763137; settings: cited from earlier work
[4] = test system: Toxoplasma gondii tachyzoites and encysted bradyzoites; settings: cited from earlier work

## AVEIHRPVPGTAPPS [AS15, AVEIHRPVPGTAPPS]
[1]; AS15 or GLA-SE alone
  Harmful response to single components: neither AS15 nor GLA-SE alone elicit this harmful response
[1]; Figure S1, single components
  Overall effect in summary cartoon: No effect
I-A^b [2]
  IC50: 413 nM

## AKFVAAWTLKAAA [PADRE]
CD4^+ T cells
  Generation of responsive CD4^+ T cells: contributes to the generation of responsive CD4^+ T cells
I-A^b [3]
  Affinity to I-A^b: relatively high affinity

## Nc1ccc(S(=O)(=O)Nc2ncccn2)cc1 [sulfadiazine]
[4]
  Activity against actively replicating tachyzoites: effective against actively replicating tachyzoites
  Elimination of encysted bradyzoites: cannot eliminate encysted bradyzoites

## CCc1nc(N)nc(N)c1-c1ccc(Cl)cc1 [Pyrimethamine]
[4]
  Activity against actively replicating tachyzoites: effective against actively replicating tachyzoites
  Elimination of encysted bradyzoites: cannot eliminate encysted bradyzoites
